Measurements reported in the supplement of paper PMC10307832.

What was measured:
Experiment in all cases: relative viability (nuclei count vs DMSO), 5 days (fraction); higher = more cells survive
KIN001-266 + Olaparib = compound: CCN1CCC(CC1)N2C=C(N=N2)CNC3=CC4=C(C(=CN=C4C(=C3)Cl)C#N)NC5=CC(=C(C=C5)F)Cl [KIN001-266] + O=C(c1cc(Cc2n[nH]c(=O)c3ccccc23)ccc1F)N1CCN(C(=O)C2CC2)CC1 [Olaparib] (partner 8 µM)
Method in brief: (§1)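 Relative viability equals treated-well nuclei counts divided by vehicle-well nuclei counts. Counts came from 4× images of lung cancer cell lines grown in 1536-well plates for 5 days after pin-tool dosing on the day after seeding. Dosing used one drug alone or a fixed anchor-drug dose plus five library-drug doses (not always all listed) in √10 steps, and values are medians of duplicate plates.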

KIN001-266 + Trametinib = compound: CCN1CCC(CC1)N2C=C(N=N2)CNC3=CC4=C(C(=CN=C4C(=C3)Cl)C#N)NC5=CC(=C(C=C5)F)Cl [KIN001-266] + CC(=O)Nc1cccc(-n2c(=O)n(C3CC3)c(=O)c3c(Nc4ccc(I)cc4F)n(C)c(=O)c(C)c32)c1 [Trametinib] (partner 0.02 µM)
Method in brief: as §1

KIN001-266 + Pictilisib = compound: CCN1CCC(CC1)N2C=C(N=N2)CNC3=CC4=C(C(=CN=C4C(=C3)Cl)C#N)NC5=CC(=C(C=C5)F)Cl [KIN001-266] + CS(=O)(=O)N1CCN(Cc2cc3nc(-c4cccc5[nH]ncc45)nc(N4CCOCC4)c3s2)CC1 [Pictilisib] (partner 1 µM)
Method in brief: as §1

KIN001-266 + Bortezomib = compound: CCN1CCC(CC1)N2C=C(N=N2)CNC3=CC4=C(C(=CN=C4C(=C3)Cl)C#N)NC5=CC(=C(C=C5)F)Cl [KIN001-266] + CC(C)C[C@H](NC(=O)[C@H](Cc1ccccc1)NC(=O)c1cnccn1)B(O)O [Bortezomib] (partner 0.002 µM)
Method in brief: as §1

Cell Line | relative viability (KIN001-266 + Olaparib; first compound 0.08 µM) | relative viability (KIN001-266 + Olaparib; first compound 0.253 µM) | relative viability (KIN001-266 + Olaparib; first compound 0.8 µM) | relative viability (KIN001-266 + Olaparib; first compound 2.53 µM) | relative viability (KIN001-266 + Olaparib; first compound 8 µM) | relative viability (KIN001-266 + Trametinib; first compound 0.08 µM) | relative viability (KIN001-266 + Trametinib; first compound 0.253 µM) | relative viability (KIN001-266 + Trametinib; first compound 0.8 µM) | relative viability (KIN001-266 + Trametinib; first compound 2.53 µM) | relative viability (KIN001-266 + Trametinib; first compound 8 µM) | relative viability (KIN001-266 + Pictilisib; first compound 0.08 µM) | relative viability (KIN001-266 + Pictilisib; first compound 0.253 µM) | relative viability (KIN001-266 + Pictilisib; first compound 0.8 µM) | relative viability (KIN001-266 + Pictilisib; first compound 2.53 µM) | relative viability (KIN001-266 + Pictilisib; first compound 8 µM) | relative viability (KIN001-266 + Bortezomib; first compound 0.08 µM) | relative viability (KIN001-266 + Bortezomib; first compound 0.253 µM) | relative viability (KIN001-266 + Bortezomib; first compound 0.8 µM) | relative viability (KIN001-266 + Bortezomib; first compound 2.53 µM) | relative viability (KIN001-266 + Bortezomib; first compound 8 µM)
NCI-H1993 | 1.04 | 0.937 | 1.16 | 0.887 | 0.73 | 0.559 | 0.52 | 0.478 | 0.475 | 0.522 | 0.872 | 0.691 | 0.967 | 0.837 | 0.976 | 1.04 | 1.29 | 1.06 | 1.01 | 0.858
NCI-H2009 | 0.721 | 0.667 | 0.657 | 0.65 | 0.321 | 0.296 | 0.313 | 0.273 | 0.23 | 0.253 | 0.852 | 0.935 | 1.02 | 0.669 | 0.48 | 1.02 | 1.06 | 1.09 | 0.95 | 0.658
NCI-H2023 | 0.465 | 0.489 | 0.528 | 0.47 | 0.411 | 0.51 | 0.578 | 0.533 | 0.447 | 0.456 | 0.242 | 0.293 | 0.267 | 0.259 | 0.232 | 1.08 | 1.1 | 1.2 | 1.03 | 0.76
NCI-H2085 | 0.763 | 0.791 | 0.725 | 0.721 | 0.598 | 0.569 | 0.457 | 0.567 | 0.558 | 0.541 | 0.524 | 0.452 | 0.421 | 0.462 | 0.458 | 1.01 | 1.04 | 0.888 | 1.14 | 0.916
